# Source: ChEMBL document CHEMBL6092194, “Development of membrane-targeting chalcone derivatives as antibacterial agents against multidrug-resistant bacteria” (Eur J Med Chem, 2024)
# Activity calls are given as the source filed them. The rule behind the calls is not given here.
# Columns and labels:
# [1] = Cytotoxicity against human L02 cells assessed as cell viability at 8 microg/ml by CCK8 assay relative to control; assay type: toxicity, cell-based; settings: at 8 µg/mL, read-out: Activity
# [2] = tested on: Klebsiella pneumoniae; test: Antibacterial activity against Klebsiella pneumoniae ATCC10031 by broth microdilution assay; assay type: functional
# [3] = tested on: Escherichia coli; test: Antibiofilm activity against Escherichia coli ATCC25922 assessed as inhibition of biofilm formation; assay type: functional, organism-based
# [4] = tested on: Staphylococcus aureus; test: (§1) Antibacterial activity against Staphylococcus aureus ATCC43300 infected in sepsis mouse model assessed as reduction in spleen damage at 5 to 10 mg/kg pre-infected with bacteria for 1 hrs followed by compound administration at 12 hrs interval for 2 days by H and E staining based analysis; assay type: functional, organism-based; settings: dose 5-10 mg/kg, time 2.0 day
# [5] = tested on: Cell membrane; test: Disruption of cell membrane in Escherichia coli ATCC25922 assessed as appearance of blue fluorescence by DAPI staining based fluorescence microscopic analysis; assay type: subcellular
# [6] = tested on: Escherichia coli; test: as §1, with “Escherichia coli ATCC25922” for “Staphylococcus aureus ATCC43300”, “inflammatory cell infiltration in liver” for “spleen damage”, “at” for “at 5 to”; assay type: functional, organism-based; settings: time 2.0 day
# [7] = tested on: Staphylococcus aureus; test: Antibacterial activity against Staphylococcus aureus ATCC43300 infected in sepsis mouse model assessed as log reduction in bacterial load in kidney at 10 mg/kg pre-infected with bacteria for 1 hrs followed by compound administration at 12 hrs interval for 2 days relative to control; assay type: functional; settings: time 2 day
# [8] = tested on: Escherichia coli; test: Antibacterial activity against Escherichia coli ATCC25922 measured after 20 passages; assay type: functional, organism-based
# [9] = tested on: Escherichia coli; test: Disruption of preformed biofilm in Escherichia coli ATCC25922 assessed as eradication of biofilm at 8 microg/ml relative to control; assay type: functional; settings: dose 8 µg/ml
# [10] = tested on: Escherichia coli; test: Disruption of preformed biofilm in Escherichia coli ATCC25922 assessed as eradication of biofilm at 32 microg/ml relative to control; assay type: functional; settings: dose 32 µg/ml
# [11] = tested on: Cell membrane; test: Disruption of cell membrane in Staphylococcus aureus ATCC43300 assessed as increase in intracellular ROS level by DCFH-DA staining based fluorescence analysis; assay type: subcellular; settings: dose 1-8 µg/ml
# [12] = tested on: Staphylococcus aureus; test: Antibacterial activity against Staphylococcus aureus ATCC43300 infected in sepsis mouse model assessed as log reduction in bacterial load in blood at 10 mg/kg pre-infected with bacteria for 1 hrs followed by compound administration at 12 hrs interval for 2 days relative to control; assay type: functional; settings: time 2 day
# [13] = tested on: Escherichia coli; test: Bactericidal activity against Escherichia coli ATCC25922 in presence of 50% serum; assay type: functional
# [14] = tested on: Escherichia coli; test: Induction of morphological changes in Escherichia coli ATCC25922 assessed as collapse of cell membrane by scanning electron microscopic analysis; assay type: functional, organism-based
# [15] = tested on: Staphylococcus aureus; test: Antibacterial activity against Staphylococcus aureus ATCC43300 infected in sepsis mouse model assessed as reduction in kidney inflammation at 5 to 10 mg/kg pre-infected with bacteria for 1 hrs followed by compound administration at 12 hrs interval for 2 days by H and E staining based analysis; assay type: functional, organism-based; settings: dose 5-10 mg/kg, time 2.0 day
# [16] = tested on: Escherichia coli; test: Antibacterial activity against penicillin-susceptible Escherichia coli ATCC25922 by broth microdilution method; assay type: functional
# [17] = tested on: Staphylococcus aureus; test: Drug resistance, ratio of MIC for Staphylococcus aureus ATCC43300 measured after 20 passages to MIC for Staphylococcus aureus ATCC43300 measured after first exposure; assay type: functional
# [18] = tested on: Staphylococcus aureus; test: Antibiofilm activity against Staphylococcus aureus ATCC43300 assessed as inhibition of biofilm formation at 16 microg/ml relative to control; assay type: functional
# [19] = tested on: Staphylococcus aureus; test: Antibacterial activity against Staphylococcus aureus ATCC43300 infected in sepsis mouse model assessed as reduction in liver inflammation at 5 to 10 mg/kg pre-infected with bacteria for 1 hrs followed by compound administration at 12 hrs interval for 2 days by H and E staining based analysis; assay type: functional, organism-based; settings: dose 5-10 mg/kg, time 2.0 day
# [20] = tested on: Cell membrane; test: Induction of cytoplasmic membrane depolarization in Staphylococcus aureus ATCC43300 assessed as increase in fluorescence intensity at 0.5 microg/ml measured after 24 mins by DiSC3(5) dye-based fluorescence assay; settings: dose 0.5 µg/ml
# [21] = tested on: Escherichia coli; test: Bactericidal activity against Escherichia coli ATCC25922 in presence of 50% plasma; assay type: functional
# [22] = Selectivity index, ratio of HC50 for hemolytic activity in red blood cells (unknown origin) to MIC for antibacterial activity against penicillin-resistant Staphylococcus aureus ATCC43300; assay type: toxicity, cell-based, RBC; settings: read-out: Selectivity Index
# [23] = tested on: Staphylococcus aureus; test: Antibacterial activity against Staphylococcus aureus ATCC43300 infected in sepsis mouse model assessed as reduction in liver damage at 5 to 10 mg/kg pre-infected with bacteria for 1 hrs followed by compound administration at 12 hrs interval for 2 days by H and E staining based analysis; assay type: functional, organism-based; settings: dose 5-10 mg/kg, time 2.0 day
# [24] = tested on: Cell membrane; test: Induction of cytoplasmic membrane depolarization in Staphylococcus aureus ATCC43300 assessed as fold increase in fluorescence intensity at 4 microg/ml measured after 24 mins by DiSC3(5) dye-based fluorescence assay relative to negative control; settings: dose 4.0 µg/ml
# [25] = tested on: Enterococcus faecalis; test: Antibacterial activity against vancomycin susceptible Enterococcus faecalis ATCC29212 by broth microdilution assay; assay type: functional
# [26] = tested on: Cell membrane; test: Induction of outer membrane permeabilization in Escherichia coli ATCC25922 assessed as increase in fluorescence intensity incubated for 20 mins by NPN uptake assay; assay type: subcellular; settings: dose 0.5-8 µg/ml
# [27] = Cytotoxicity against human L02 cells by CCK8 assay; assay type: toxicity, cell-based
# [28] = tested on: Staphylococcus aureus; test: Antibacterial activity against Staphylococcus aureus ATCC43300 infected in sepsis mouse model assessed as reduction in kidney damage at 5 to 10 mg/kg pre-infected with bacteria for 1 hrs followed by compound administration at 12 hrs interval for 2 days by H and E staining based analysis; assay type: functional, organism-based; settings: dose 5-10 mg/kg, time 2.0 day
# [29] = tested on: Cell membrane; test: Induction of outer membrane permeabilization in Escherichia coli ATCC25922 assessed as fold increase in fluorescence intensity at 8 microg/ml incubated for 20 mins by NPN uptake assay; assay type: subcellular; settings: dose 8.0 µg/ml
# [30] = tested on: Staphylococcus aureus; test: Antibacterial activity against Staphylococcus aureus ATCC43300 infected in sepsis mouse model assessed as log reduction in bacterial load in kidney at 5 mg/kg pre-infected with bacteria for 1 hrs followed by compound administration at 12 hrs interval for 2 days relative to control; assay type: functional; settings: time 2 day
# [31] = tested on: Staphylococcus aureus; test: Bactericidal activity against Staphylococcus aureus ATCC43300 assessed as elimination of bacteria at 8 microg/ml measured within 4 hrs by time-kill kinetics assay relative to control; assay type: functional; settings: dose 8 µg/ml
# [32] = tested on: Staphylococcus aureus; test: Antibacterial activity against Staphylococcus aureus ATCC43300 infected in sepsis mouse model assessed as reduction in inflammatory cell infiltration in kidney at 10 mg/kg pre-infected with bacteria for 1 hrs followed by compound administration at 12 hrs interval for 2 days by H and E staining based analysis; assay type: functional, organism-based; settings: time 2.0 day
# [33] = Selectivity ratio of MBC for Staphylococcus aureus ATCC43300 in presence of 50% plasma to MBC for Staphylococcus aureus ATCC43300 in Mueller Hinton Broth; assay type: functional
# [34] = tested on: Cell membrane; test: Disruption of cell membrane in Escherichia coli ATCC25922 assessed as appearance of red fluorescence by PI staining based fluorescence microscopic analysis; assay type: subcellular
# [35] = tested on: Cell membrane; test: Disruption of cell membrane in Escherichia coli ATCC25922 assessed as increase in intracellular ROS level by DCFH-DA staining based fluorescence analysis; settings: dose 1-8 µg/ml
# [36] = tested on: Cell membrane; test: Induction of cytoplasmic membrane depolarization in Staphylococcus aureus ATCC43300 assessed as increase in fluorescence intensity at 8 microg/ml measured after 24 mins by DiSC3(5) dye-based fluorescence assay; settings: dose 8.0 µg/ml
smiles,measurement,setting,value
CCCCCCOc1cc[n+](CCCOc2ccc(/C=C/C(=O)c3ccc(OCCC[n+]4ccc(OCCCCCC)cc4)cc3)cc2)cc1.[Br-].[Br-],viability at 8 microg/ml,[1],93.9%
same,MIC,[2],1 µg/mL
same,Activity,[3],Dose-dependent-effect
same,Activity,[4],Active
same,Activity,[5],Active
same,Activity,[6],inactive
same,log(activity),[7],1.76
same,Activity,[8],Active
same,Activity,[9],41.61%
same,Activity,[10],>49.08%
same,Activity,[11],Dose-dependent-effect
same,log(activity),[12],1.61
same,MBC,[13],32 µg/mL
same,Activity,[14],Active
same,Activity,[15],Active
same,MIC,[16],1 µg/mL
same,Ratio,[17],4
same,inhibition at 16 µg/mL,[18],90.9%
same,Activity,[19],Active
same,Activity,[20],Not active; Fluorescence Intensity Remained Comparable To Negative Control
same,MBC,[21],8 µg/mL
same,selectivity ratio,[22],659
same,Activity,[23],Active
same,fold change (FC),[24],5.8
same,MIC,[25],0.5 µg/mL
same,Activity,[26],Dose-dependent-effect
same,CC50,[27],25.9 µg/mL
same,Activity,[28],Active
same,fold change (FC),[29],2.5
same,log(activity),[30],0.86
same,Activity,[31],>=99.9%
same,Activity,[32],inactive
same,Ratio,[33],<2
same,Activity,[34],Active
same,Activity,[35],Dose-dependent-effect
same,Activity,[36],Active; Fluorescence Intensity Surpassed The Melittin Group
